Measured values as given in ChEMBL document CHEMBL3797093, “Optimization of amide-based EP3 receptor antagonists” (Bioorg Med Chem Lett, 2016).

How the values were obtained:
Hepatocyte [1] = experiment: Drug level in human hepatocytes treated with GSK; format: ADME, cell-based
[2] = Apparent intrinsic clearance in human liver microsomes in presence of NADPH; format: ADME; conditions: read-out: CLH(app)
Hepatocyte [3] = experiment: Drug metabolism in human hepatocytes assessed as N-(5-(2,6-dichlorophenyl)-1,3,4-thiadiazol-2-yl)-3-(ethylamino)-4-hydroxybenzamide formation; format: ADME, cell-based
Hepatocyte [4] = experiment: Drug metabolism in human hepatocytes assessed as N-(5-(2,6-dichlorophenyl)-1,3,4-thiadiazol-2-yl)-4-(2-hydroxyethyl)-3,4-dihydro-2H-benzo[b][1,4]oxazine-6-carboxamide formation; format: ADME, cell-based
Hepatocyte [5] = experiment: Drug metabolism in human hepatocytes assessed as 4-ethyl-3,4-dihydro-2H-benzo[b][1,4]oxazine-6-carboxylic acid formation; format: ADME, cell-based
[6] = Intrinsic clearance in human hepatocytes; format: ADME, cell-based, Hepatocyte; conditions: read-out: CLH

| microsomal CLint [2] [µL/min/mg] | Structure (SMILES) | other results |
| --- | --- | --- |
| – | CCNc1cc(C(=O)Nc2nnc(-c3c(Cl)cccc3Cl)s2)ccc1O | Drug metabolism (Hepatocyte [1]): metabolite_detected |
| 13.2 | CC(C)n1ncc2ccc(C(=O)Nc3nnc(C4CC4)s3)cc21 | – |
| – | O=C(Nc1nnc(-c2c(Cl)cccc2Cl)s1)c1ccc2c(c1)N(CCO)CCO2 | Drug metabolism (Hepatocyte [1]): metabolite_detected |
| < 8 | Cn1ncc2ncc(C(=O)Nc3nnc(C4CC4)s3)cc21 | – |
| < 8.6 | CCn1ncc2c(F)cc(C(=O)Nc3nnc(C4(C)CCN(C(C)=O)CC4)s3)cc21 | – |
| 20 | CCn1ncc2c(F)cc(C(=O)Nc3nnc(C4(C)CCN(C(=O)C(C)(C)O)CC4)s3)cc21 | – |
| < 8 | CCn1ncc2ccc(C(=O)Nc3nnc(C4CC4)s3)cc21 | – |
| – | CCN1CCOc2ccc(C(=O)Nc3nnc(-c4c(Cl)cccc4Cl)s3)cc21 | CLint scaled [2]: 39 mL/min/kg; Drug metabolism (Hepatocyte [3]): metabolite_detected; Drug metabolism (Hepatocyte [4]): metabolite_detected; Drug metabolism (Hepatocyte [5]): metabolite_detected; CLint scaled [6]: 59 mL/min/kg |
| – | CCN1CCOc2ccc(C(=O)O)cc21 | Drug metabolism (Hepatocyte [1]): metabolite_detected |
| 21.3 | Cn1ncc2cc(C(=O)Nc3nnc(C4CC4)s3)ccc21 | – |
| 25 | CCN1CCOc2ccc(C(=O)Nc3nnc(C4CC4)s3)cc21 | – |
| < 8 | CCn1ncc2c(F)cc(C(=O)Nc3nnc(C4(C)CCN(C(=O)CO)CC4)s3)cc21 | – |
| < 8 | CCn1ncc2c(F)cc(C(=O)Nc3nnc(C4(C)CN(C(C)=O)C4)s3)cc21 | – |
| 10.9 | CCn1ncc2c(Cl)cc(C(=O)Nc3nnc(C4CC4)s3)cc21 | – |
| < 8 | CCn1ncc2c(F)cc(C(=O)Nc3nnc(C4(C)CCN(C(C)=O)C4)s3)cc21 (racemic) | – |
| 8.6 | CCn1ncc2c(F)cc(C(=O)Nc3nnc(C4CC4)s3)cc21 | – |
| < 8 | CCn1ncc2c(F)cc(C(=O)Nc3nnc(C4(C)CCN(C(=O)C(C)O)CC4)s3)cc21 (racemic) | – |
| < 8 | Cn1ncc2ccc(C(=O)Nc3nnc(C4CC4)s3)cc21 | – |
